In patent US12157730B2, “Heteroaryl derivative, method for producing same, and pharmaceutical composition comprising same as effective component” (VORONOI INC., priority 2019, dated 2024):

Experiments:
[1] = biological target: T1, Ba/F3 cell EGFR L858R/T790M (Homo sapiens, UniProt P00533, L858R/T790M); assay: Ba/F3 cell proliferation suppression, EGFR L858R/T790M; type: cell-based; details: 72 hours after treatment, CellTiter-Glo
T1 construct: expressed in transfected cells; host or cells: Ba/F3
Method in brief: (§1)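 Cells were seeded 24 h before dosing and then treated for 72 hours with compound at final concentrations of 0.3 nM to 50 um. Live cells were measured by CellTiter-Glo luminescence, and GI50 values were derived from growth ratio relative to control across three repeats.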

[2] = test system: Ba/F3 cell EGFR Del19/T790M; assay: Ba/F3 cell proliferation suppression, EGFR Del19/T790M; type: cell-based; details: 72 hours after treatment, CellTiter-Glo
Method in brief: as §1

Ba/F3 cell EGFR L858R = biological target: T2, Ba/F3 cell EGFR L858R (Homo sapiens, UniProt P00533, L858R); assay: Ba/F3 cell proliferation suppression, EGFR L858R; type: cell-based; details: 72 hours after treatment, CellTiter-Glo
T2 construct: expressed in transfected cells; host or cells: Ba/F3
Method in brief: as §1

[3] = biological target: T3, Ba/F3 cell EGFR Exon20 ins NPH (Homo sapiens, UniProt P00533, INS773NPH); assay: Ba/F3 cell proliferation suppression, EGFR Exon20 ins NPH; type: cell-based; details: for GI50: 72 hours after treatment, CellTiter-Glo; for Ba/F3 (NPH) Activity: GI50 class, Ba/F3 cell line with NPH inserted at Exon20 of EGFR, 72 hours
T3 construct: expressed in transfected cells; host or cells: Ba/F3
Method in brief: as §1

[4] = biological target: T4, Ba/F3 cell EGFR Exon20 ins SVD (Homo sapiens, UniProt P00533, INS770SVD); assay: Ba/F3 cell proliferation suppression, EGFR Exon20 ins SVD; type: cell-based; details: 72 hours after treatment, CellTiter-Glo
T4 construct: expressed in transfected cells; host or cells: Ba/F3
Experimental: (§2) The following experiment was carried out to evaluate the suppression activity of the compounds according to the present invention against proliferation of Ba/F3 and lung cancer cells which express EGFR mutations.
(§3) Of the cancer cell lines expressing the EGFR gene, A549 was cultured after adding 10% FBS (HyClone) to DMEM (Invitrogen), and RPMI-1640 (Invitrogen) with 10% FBS was used for the other cancer cells. For the Ba/F3 cells, RPMI-1640 with 10% FBS and 5 ng/ml IL-3 (R&D Systems) was used. The transduced Ba/F3 cells were cultured by adding 1 ug/ml puromycin (Invitrogen) to the same medium.
(§4) 24 hours before treatment with the compounds, 3000 to 5000 cells were distributed into each well of a white clear bottom 96 well plate (Corning). The compounds were diluted in dimethylsulfoxide (dilution ratio 3:1; 12 concentrations total) and injected 0.5 ul each for a final concentration of 0.3 nM to 50 um. As for measurement of live cells, 72 hours after treatment with the compounds, a CellTiter-Glo luminescent cell-viability reagent (Promega) was used to store the cells at room temperature for 10 minutes, followed by measurement of luminescence using a reader (SynergyNeo, Biotek). Each test was repeated three times.
(§5) The result was calculated as a cell growth ratio (%) compared to a control. The program GraphPad Prism version 5.0 was used to draw the graphs and calculate the GI50 values.

[5] = biological target: T5, Ba/F3 cell EGFR Exon20 ins FQEA (Homo sapiens, UniProt P00533, INS763FQEA); assay: Ba/F3 cell proliferation suppression, EGFR Exon20 ins FQEA; type: cell-based; details: 72 hours after treatment, CellTiter-Glo
T5 construct: expressed in transfected cells; host or cells: Ba/F3
Experimental: as §2, §3, §4, §5

[6] = test system: Ba/F3 cell EGFR Exon20 ins H; assay: Ba/F3 cell proliferation suppression, EGFR Exon20 ins H; type: cell-based; details: 72 hours after treatment, CellTiter-Glo
Experimental: as §2, §3, §4, §5

[7] = biological target: T6, Ba/F3 cell EGFR Exon20 ins ASV (Homo sapiens, UniProt P00533, INS769ASV); assay: Ba/F3 cell proliferation suppression, EGFR Exon20 ins ASV; type: cell-based; details: 72 hours after treatment, CellTiter-Glo
T6 construct: expressed in transfected cells; host or cells: Ba/F3
Method in brief: as §1

[8] = biological target: T7, Ba/F3 cell HER2 Exon20 ins YVMA (Homo sapiens, UniProt P04626, INS775YVMA); assay: Ba/F3 cell proliferation suppression, HER2 Exon20 ins YVMA; type: cell-based; details: 72 hours after treatment, CellTiter-Glo
T7 construct: expressed in transfected cells; host or cells: Ba/F3
Experimental: as §2, §3, §4, §5

Ba/F3 cell naive = assay: Ba/F3 cell proliferation suppression, naive; type: cell-based; details: Mus musculus, BaF3; 72 hours after treatment, CellTiter-Glo
Method in brief: as §1

PC9GR = assay: Lung cancer cell proliferation suppression, PC9GR; type: cell-based; details: 72 hours after treatment, CellTiter-Glo
Experimental: as §2, §3, §4, §5

H1975 = assay: Lung cancer cell proliferation suppression, H1975; type: cell-based; details: Homo sapiens, NCI-H1975; 72 hours after treatment, CellTiter-Glo
Experimental: as §2, §3, §4, §5

PC9 = assay: Lung cancer cell proliferation suppression, PC9; type: cell-based; details: Homo sapiens, PC-9; 72 hours after treatment, CellTiter-Glo
Experimental: as §2, §3, §4, §5

[9] = Cancer cell proliferation suppression, A549; type: cell-based; details: A459; 72 hours after treatment, CellTiter-Glo
Experimental: as §2, §3, §4, §5

[10] = test system: scanMAX kinase panel (EGFR mutant, ERBB2, ERBB4); assay: DiscoverX (eurofin) KINOMEscan (scanMAX platform) kinase profiling; type: binding; details: for suppression activity against the EGFR mutant and ERBB2 and ERBB4: KINOMEscan scanMAX kinase profiling
Source text: It was confirmed that the above example compounds had high selectivity against EGFR series genes. Accordingly, these can be useful in the treating of cancers wherein this kinase is expressed. In particular, as they have substantially outstanding lung cancer cell line proliferation suppression, they can be useful in the treatment of lung cancer, breast cancer, and brain cancer.

T7 sequence (P04626 with tags, fused parts or gaps INS775YVMA): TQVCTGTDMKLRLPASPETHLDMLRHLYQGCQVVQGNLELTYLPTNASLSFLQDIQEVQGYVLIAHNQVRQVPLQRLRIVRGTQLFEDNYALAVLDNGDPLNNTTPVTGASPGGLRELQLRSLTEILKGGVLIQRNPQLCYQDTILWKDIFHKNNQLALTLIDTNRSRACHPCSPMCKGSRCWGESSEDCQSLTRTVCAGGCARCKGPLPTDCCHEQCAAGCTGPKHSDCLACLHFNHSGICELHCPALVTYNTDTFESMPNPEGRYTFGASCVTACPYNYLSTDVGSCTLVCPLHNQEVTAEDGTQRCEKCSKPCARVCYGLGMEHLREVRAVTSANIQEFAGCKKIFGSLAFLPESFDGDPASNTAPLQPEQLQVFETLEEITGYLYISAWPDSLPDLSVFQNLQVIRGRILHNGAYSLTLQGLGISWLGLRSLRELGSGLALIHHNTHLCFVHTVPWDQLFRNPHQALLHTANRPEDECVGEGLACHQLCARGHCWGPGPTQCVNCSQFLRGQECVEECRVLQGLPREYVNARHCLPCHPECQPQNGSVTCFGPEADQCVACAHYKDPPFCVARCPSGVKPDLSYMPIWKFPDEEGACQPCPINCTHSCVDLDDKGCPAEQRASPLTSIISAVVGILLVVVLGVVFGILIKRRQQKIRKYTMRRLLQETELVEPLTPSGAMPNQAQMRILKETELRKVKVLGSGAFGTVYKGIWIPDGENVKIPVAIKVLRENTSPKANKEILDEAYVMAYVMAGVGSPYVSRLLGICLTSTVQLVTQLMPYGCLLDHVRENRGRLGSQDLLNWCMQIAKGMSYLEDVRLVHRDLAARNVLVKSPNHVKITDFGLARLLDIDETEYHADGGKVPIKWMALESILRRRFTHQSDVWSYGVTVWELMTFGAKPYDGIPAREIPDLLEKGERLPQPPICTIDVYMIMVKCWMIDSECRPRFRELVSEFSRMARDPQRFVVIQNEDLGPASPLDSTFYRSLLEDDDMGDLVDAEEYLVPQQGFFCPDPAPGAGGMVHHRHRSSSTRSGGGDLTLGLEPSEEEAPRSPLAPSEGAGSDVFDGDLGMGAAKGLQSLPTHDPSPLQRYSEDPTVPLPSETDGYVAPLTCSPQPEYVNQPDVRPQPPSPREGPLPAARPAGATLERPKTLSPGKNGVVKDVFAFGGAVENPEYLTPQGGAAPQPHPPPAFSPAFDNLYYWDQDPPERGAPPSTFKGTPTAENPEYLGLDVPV

| Compound | GI50 [1] | GI50 [2] | GI50 (Ba/F3 cell EGFR L858R) | GI50 [3] | Ba/F3 (NPH) Activity [3] | GI50 [4] | GI50 [5] | GI50 [6] | GI50 [7] | GI50 [8] | GI50 (Ba/F3 cell naive) | GI50 (PC9GR) | GI50 (H1975) | GI50 (PC9) | GI50 [9] | % inhibition of scanMAX Kinase profiling ([10]; EGFR(E746-A750del)) | % inhibition of scanMAX Kinase profiling ([10]; EGFR(G719C)) | % inhibition of scanMAX Kinase profiling ([10]; EGFR(G719S)) | % inhibition of scanMAX Kinase profiling ([10]; EGFR(L747-E749del, A750P)) | % inhibition of scanMAX Kinase profiling ([10]; EGFR(L747-T751del.Sins)) | further results |
| --- | --- | --- | --- | --- | --- | --- | --- | --- | --- | --- | --- | --- | --- | --- | --- | --- | --- | --- | --- | --- | --- |
| C=CC(=O)Nc1cc(Nc2cc(N3OCC[C@@H]3c3ccccc3)ncn2)c(OC)cc1N(C)CCN(C)C [Example 4] | < 0.05 µM | < 0.05 µM | < 0.05 µM | < 0.05 µM | A (GI50 < 50 nM) | < 0.05 µM | < 0.05 µM | < 0.05 µM | < 0.05 µM | < 0.05 µM | ≥ 5 µM | 20 nM | 28 nM | 1 nM | > 15000 nM | 100% | 100% | 100% | 97% | 100% | % inhibition of scanMAX Kinase profiling ([10]; EGFR(L858R)): 100%; % inhibition of scanMAX Kinase profiling ([10]; EGFR(L858R.T790M)): 96%; % inhibition of scanMAX Kinase profiling ([10]; EGFR(L861q)): 100%; % inhibition of scanMAX Kinase profiling ([10]; EGFR(S752-I759del)): 100%; % inhibition of scanMAX Kinase profiling ([10]; EGFR(T790M)): 99%; % inhibition of scanMAX Kinase profiling ([10]; ERBB2): 100%; % inhibition of scanMAX Kinase profiling ([10]; ERBB4): 100%; suppression activity against the EGFR mutant and ERBB2 and ERBB4 [10]: high suppression activity |
| C=CC(=O)Nc1cc(Nc2cc(N3OCC[C@@H]3c3ccccc3)ncn2)c(OC)cc1N1CCN(CC)CC1 [Example 15, N-(2-(4-ethylpiperazine-1-yl)-4-methoxy-5-((6-((R)-phenylisoxazolidine-2-yl)pyrimidine-4-yl)amino)phenyl) acrylamide] | < 0.05 µM | < 0.05 µM | < 0.05 µM | < 0.05 µM | A (GI50 < 50 nM) | < 0.05 µM | < 0.05 µM | < 0.05 µM | < 0.05 µM | < 0.05 µM | ≥ 5 µM | 6 nM | 13 nM | 7 nM | > 15000 nM |  |  |  |  |  |  |
| C=CC(=O)Nc1cc(Nc2cc(N3OCC[C@@H]3c3ccccc3)ncn2)c(OC)cc1N1CC[C@@H](N(C)C)C1 [Example 13] | < 0.05 µM | < 0.05 µM | < 0.05 µM | < 0.05 µM | A (GI50 < 50 nM) | < 0.05 µM | < 0.05 µM | < 0.05 µM | < 0.05 µM | < 0.05 µM | ≥ 5 µM | 64 nM | 63 nM | 12 nM | > 15000 nM |  |  |  |  |  |  |
| C=CC(=O)Nc1cc(Nc2cc(N3OCC[C@@H]3c3ccccc3)ncn2)c(OC)cc1N1CCC(N2CCN(C)CC2)CC1 [Example 9] | < 0.05 µM | < 0.05 µM | < 0.05 µM | < 0.05 µM | A (GI50 < 50 nM) | < 0.05 µM | < 0.05 µM | < 0.05 µM | < 0.05 µM | < 0.05 µM | ≥ 5 µM | 4 nM | 6 nM | 1 nM | > 15000 nM | 100% | 100% | 100% | 100% | 100% | % inhibition of scanMAX Kinase profiling ([10]; EGFR(L858R)): 100%; % inhibition of scanMAX Kinase profiling ([10]; EGFR(L858R.T790M)): 96%; % inhibition of scanMAX Kinase profiling ([10]; EGFR(L861q)): 100%; % inhibition of scanMAX Kinase profiling ([10]; EGFR(S752-I759del)): 100%; % inhibition of scanMAX Kinase profiling ([10]; EGFR(T790M)): 99%; % inhibition of scanMAX Kinase profiling ([10]; ERBB2): 100%; % inhibition of scanMAX Kinase profiling ([10]; ERBB4): 100%; suppression activity against the EGFR mutant and ERBB2 and ERBB4 [10]: high suppression activity |
| C=CC(=O)Nc1cc(Nc2cc(N3OCC[C@@H]3c3ccccc3)ncn2)c(OC)cc1N1CCN(C)CC1 [Example 6, N-(4-methoxy-2-(4-methylpiperazine-1-yl)-5-((6-((R)-3-phenylisoxazolidine-2-yl)pyrimidine-4-yl)amino)phenyl) acrylamide] | < 0.05 µM | < 0.05 µM | < 0.05 µM | < 0.05 µM | A (GI50 < 50 nM) | < 0.05 µM | < 0.05 µM | < 0.05 µM | < 0.05 µM | < 0.05 µM | ≥ 5 µM | 32 nM | 60 nM | 1 nM | > 15000 nM | 100% | 100% | 100% | 100% | 100% | % inhibition of scanMAX Kinase profiling ([10]; EGFR(L858R)): 100%; % inhibition of scanMAX Kinase profiling ([10]; EGFR(L858R.T790M)): 85%; % inhibition of scanMAX Kinase profiling ([10]; EGFR(L861q)): 100%; % inhibition of scanMAX Kinase profiling ([10]; EGFR(S752-I759del)): 96%; % inhibition of scanMAX Kinase profiling ([10]; EGFR(T790M)): 100%; % inhibition of scanMAX Kinase profiling ([10]; ERBB2): 100%; % inhibition of scanMAX Kinase profiling ([10]; ERBB4): 100%; suppression activity against the EGFR mutant and ERBB2 and ERBB4 [10]: high suppression activity |
